Patent publication US20240174598A1, “COMPOUNDS FOR THE TREATMENT OF DISORDERS AND SALTS AND POLYMORPHS THEREOF” (OccuRx Pty Ltd, priority 2021, published 2024)
Counter-ions that a name gives are not always drawn.

What was measured:
[1] = Dynamic vapor sorption (DVS) analysis; format: physicochemical; conditions: for stability to humidity: over a wide range of humidity
Experimental: Approximately, 10-20 mg of sample was placed into a mesh vapor sorption balance pan and loaded into a DVS Intrinsic dynamic vapor sorption balance by Surface Measurement Systems. The sample was subjected to a ramping profile from 40-90% relative humidity (RH) at 10% increments, maintaining the sample at each step until a stable weight had been achieved (dm/dt 0.004%, minimum step length 30 minutes, maximum step length 500 minutes) at 25° C. After completion of the sorption cycle, the sample was dried using the same procedure to 0% RH and then a second sorption cycle back to 40% RH. Two cycles were performed. The weight change during the sorption/desorption cycles were plotted, allowing for the hygroscopic nature of the sample to be determined. XRPD analysis was then carried out on any solid retained.

[2] = Intrinsic dissolution studies (disc, Wood's die); format: physicochemical
Experimental: Discs for the intrinsic dissolution evaluation were prepared by weighing approximately 175 mg of each batch and compressing with a small hydraulic press in a 13 mm Wood's die for 3 minutes at a force of approximately 3000 lbs. The surface of each disc was examined carefully to ensure that it was uniform, smooth and free from loose powder.
The dissolution experiments were conducted by attaching the Wood's die containing the disc, to the matching shafts on an Erweka DT6 dissolution apparatus. The discs were lowered into the media (500 mL at 37° C.) and immediately rotated at 100 rpm. Duplicate samples of the media (0.2 mL) were removed prior to immersion of the disc and then at 2, 5, 10, 15, 20, 25, 30, 60 and 90 minutes after the experiment was initiated. Sampling was discontinued if substantial dissolution was visible or if the disc disintegrated in the media.
At the end of each experiment, the discs were removed from the media and examined to ensure that the surface of the discs remained uniform and to qualitatively assess the extent of dissolution over the course of the experiment. Media samples were centrifuged (10000 rpm×3 min) and a small aliquot (50 μL) removed, 5-fold diluted with 50% aqueous acetonitrile prior to HPLC analysis.

SMILES | water uptake corresponding to the mass increase ([1]; at 90% RH) | mass increase by dynamic vapor sorption ([1]; at 90% Relative Humidity (RH)) [wt. %] | stability to humidity [1] | dissolution profile compared to the free acid of the compound of Formula (I) ([2]; FaSSIF media, 37° C. (FIG. 12)) | dissolution profile compared to the free acid of the compound of Formula (I) ([2]; PBS media, 37° C. (FIG. 13)) | hygroscopicity by dynamic vapor sorption/desorption analysis [1] | water uptake by dynamic vapor sorption ([1]; at 90% RH)
COc1cc(/C=C/C(=O)Nc2ccccc2C(=O)O)ccc1OC(F)F [Crystalline Salt A] | 1.3 equiv. of water | 4.2 | stable over a wide range of humidity | superior | superior |  | 
COc1cc(/C=C/C(=O)Nc2ccccc2C(=O)O)ccc1OC(F)F [Crystalline Salt B] |  |  | stable over a wide range of humidity | superior | equivalent, if not better | non-hygroscopic | negligible water uptake
